Consider three compounds from BindingDB's records for doi:10.1016/s0960-894x(98)00617-9 (Scripps Research Institute, 1999).

The structures appear in SMILES notation. pIC50: −log10 of the molar value.

By pIC50 is commonly meant the negative decadic logarithm of the IC50, by convention in mol/L. The low end stands for a high IC50, the high end for a low IC50.

A short description of assay [1]: Compound was tested for inhibitory activity against alpha-Fucosidase obtained from Bovine kidney.
Assay [2] in a line: Compound was tested for inhibitory activity against alpha-Fucosidase obtained from Bovine epididymis.
The nature of assay [3]: Compound was tested for inhibitory activity against alpha-1,2-Fucosidase obtained from Arthrobacter oxidans F1.

As to `CC1NC(CN)(CO)C(O)C(O)C1O` (centres undefined) [2-Aminomethyl-2-hydroxymethyl-6-methyl-piperidine-3,4,5-triol], the pIC50 is 6.69 in assay [1], 6.80 in assay [2] and 7.10 in assay [3].
For `CC1NC(CO)(CNC(=O)CN)C(O)C(O)C1O` (centres undefined) [2-Amino-N-(3,4,5-trihydroxy-2-hydroxymethyl-6-methyl-piperidin-2-ylmethyl)-acetamide], in that order: 7.30, 6.77 and 6.94.
For `CC1NC(C#N)(CO)C(O)C(O)C1O` (centres undefined) [3,4,5-Trihydroxy-2-hydroxymethyl-6-methyl-piperidine-2-carbonitrile], in that order: 7.12, 6.96 and 6.91.
